Data set [1] relates to stem cell derived beta cells. The experiment in a line: Western blotting of sorted GFP positive cells. The format is cell-based, human. The following applies: Western Blot. On the procedure: The sorted GFP positive and negative cells with and without cell cycle inhibitor (e.g., APH) treatment were lysed with RIPA buffer. Protein was quantified with Pierce BCA protein assay kit. 20 ug of protein was loaded on 4-20% Mini-PROTEAN TGS Precast Protein Gels (Cat. No. 4561094, Bio-Rad) from each condition and ran at 100 V for 1 hour followed by transferring protein on PVDF membrane. The membrane was blocked with 3% BSA in TBST for 1 hour at RT, incubate with primary antibodies diluted in TBST with 3% BSA overnight on a shaker. After washing with TBST, the membrane was incubated with secondary antibodies diluted in TBST with 3% non-fat dry milk powder for 1 hour at room temperature. The image was taken using ChemiDoc Imaging Systems (Bio-Rad).
(§1) Insulin positive cells were isolated based on GFP expression and the expressions of genes related to the maturation of beta cells including PDX1, NKX6.1, MAFA and insulin were evaluated (FIG. 6A). […] In addition, the C-peptide secretion was increased 2-6-fold, with an average of 3-fold, in response to high levels of glucose (FIG. 6D).
A general note: In western blotting, separated proteins are transferred to a membrane and probed.

Another data set deals with sc-beta cell clusters. Nature of the data set: Static glucose stimulated C-peptide secretion. The format is cell-based, human. The following applies: 2 mM versus 20 mM glucose. On the procedure:
Krebs Ringer buffer (KRB) was prepared by addition of 129 mM NaCl, 4.8 mM KCl, 2.5 mM CaCl2), 1.2 mM MgSO4, 1 mM Na2HPO4, 1.2 mM KH2PO4, 5 mM NaHCO3, 10 mM HEPES and 0.1% BSA in deionized water and was sterilized using 0.22 μm filter. 2 mM and 20 mM glucose solution were prepared in KRB for low glucose and high glucose challenge of sc-beta cell clusters. 10-20 sc-beta cell clusters (about 5×10^5 cells) were collected from control and cells treated with cell cycle inhibitors including APH and treated conditions and pre-incubated in 500 μl low glucose solution for 1 hour. Clusters were then washed once with low glucose solution and sequentially incubated in 200 μl of low glucose and then high glucose solution for 30 minutes. 130 μl supernatant of each condition were collected. Supernatants containing secreted C-peptide stimulated by low and high glucose were processed using Mercodia Ultrasensitive Human C-peptide ELISA kit. Fold changes of C-peptide secretion before and after glucose stimulation were calculated.
as §1

For another data set, the system named is NSG mice. Nature of the data set: Transplantation of treated islet-like clusters, human C-peptide in mouse serum. The format is in vivo. The protocol: 8-10 weeks old male immuno-compromised mice (NOD.Cg-Prkdcscid Il2rgtm1Wj1/SzJ (NSG) from Jackson laboratories, Cat. No. 005557) were used for transplantation. For intra leg muscle transplantation, 1-2 million cells were collected and settled in tube with 50 μl Matrigel. All animal protocols were approved by the Institutional Animal Care and Use Committee in Columbia University.
The human C-peptide levels in mouse serum were measured every two weeks in the fed state. Intraperitoneal glucose tolerance test was performed by fasting overnight and injecting 2 g/kg D-glucose solution at 2 weeks after mouse beta cells were ablated with one high dose (150 mg/kg) Streptozocin (Cat. No. S0130-1G, Sigma-Aldrich). Blood was collected in heparin-coated tube at fed state, fasting and 30 min after glucose injection. Plasma were collected by centrifuging tubes at 2000 g for 15 minutes at 4° C. The supernatants were collected for C-peptide and insulin detection with Mercodia M-Plex™ ARRAY Chemiluminescent Mercodia Beta Kit. Blood glucose levels was measured at fed state, fasting and every 30 minutes after glucose injection for 2 hours.
To test the ability of aphidicolin treated islet-like clusters to regulate blood glucose levels, treated and untreated cells were grafted into NSG mice on day 27 of differentiation. After transplantation in the immunodeficient mice, the mice transplanted with APH treated cells developed higher human C-peptide starting from 2 weeks after engraftment compared to that of control mice (FIG. 7A). The increase became significant from 6 weeks after transplantation (FIG. 7B).

The test system of data set [2] is pancreatic progenitor cells. Nature of the data set: TUNEL staining for apoptosis and absolute cell numbers. It is filed as cell-based. The source says:
To determine whether the increased percentage of beta cells was due to cell death of proliferating progenitors or due to increased differentiation from pancreatic progenitor cells, absolute cell numbers and cell death were quantified. Cells at day 17 and day 27 with and without APH treatment were stained for TUNEL. […] Therefore, the increased percentage of C-peptide positive cells was due to the increased differentiation, not the elimination of non-C-peptide positive cells from day 15 to day 20. After day 20, APH maintained the purity of beta cell clusters by preventing the growth of non-beta cells.

Data set [3] deals with iPSC lines 1018E and 1023A. Nature of the data set: Beta cell differentiation in iPSC lines with different differentiation potentials, C-peptide positive cells. The format is cell-based, human. On the procedure:
Human pluripotent stem cells were cultured and maintained in feeder-free plates with stemflex medium as described. Three cell lines were involved in this study as shown in Table 2: MEL1 is human embryonic stem cell line; 1023A is a human induced pluripotent stem cell line reprogrammed from a skin fibroblast biopsied of a healthy control; and 1018E is a human induced pluripotent stem cell line reprogrammed from a skin fibroblast biopsied from a type 1 diabetes patient. All human subjects research was reviewed and approved by the Columbia University Institutional Review Board, and the Columbia University Embryonic Stem Cell Committee.
Beta cells differentiated from human pluripotent stem cell lines as described in Example 2 (Sui et al., 2018b). Indicated compounds that function as cell cycle inhibitors were added individually from day 15 to day 27 with concentration listed below:
The beta cell clusters were dissociated using TrypLE™ Express into single cells. Cells were fixed with 4% PFA for 10 min and followed by permeabilization at −20° C. with cold methanol for 10 min. […] The cells were filtered with BD Falcon 12×75 mm tube with cell strainer cap (Cat. No. 352235, BD) and subsequently analyzed by flow cytometer. Data were analyzed using Flowjo software. […]

`C[C@@]1(CO)[C@H](O)CC[C@@]2(C)[C@H]1CC[C@H]1C[C@@H]3C[C@@]12CC[C@]3(O)CO` [APH, Aphidicolin]: in data set [1], the “expression of MAFA at the translational level” value was “increased expression”, the “expression of NKX6.1 at the translational level” value is listed as “increased expression”, the “expression of PDX1 at the translational level” value is “increased expression” and the “expression of insulin at the translational level” value is “increased expression”. In the data set with sc-beta cell clusters, the “C-peptide secretion increase in response to high levels of glucose” value is reported as 2-6 fold and the “C-peptide secretion increase in response to high levels of glucose, average” value is recorded as 3 fold. Moreover, the “secretion of human C-peptide in mice” value with NSG mice (after glucose injection) is listed as “increased”. Further, the “increase of human C-peptide versus control mice, significance” value with NSG mice (from 6 weeks after transplantation) is recorded as “significant”. Also, the “human C-peptide compared to control mice” value in the data set on NSG mice (mice transplanted with APH treated cells, starting from 2 weeks after engraftment) is recorded as “higher”. The “secretion of human C-peptide in mice” value with NSG mice (when mice were fasted) is “downregulated”. Further, the “cell apoptosis, percentage of TUNEL positive cells” value in data set [2] (day 17 and day 27, early and late stage of APH treatment) is on record as “No significant increase”. In data set [2] (day 20), the “number of total cells compared to control group” value is “comparable” and the “percentage of C-peptide positive cells compared to control” value is “significantly increased”. Also, the “percentage of C-peptide positive cells” value in data set [3] (both cell lines 1018E and 1023A, after APH treatment versus control) was “significantly upregulated”. In data set [3] (cell line 1018E (differentiates poorly), after APH treatment), the “average percentage of C-peptide positive cells” value was found to be 38%.

The values are drawn from patent US12605407B2, “Methods to induce terminal differentiation in stem cells by interfering with DNA replication, methods of inducing pancreatic differentiation, and differentiated cells obtained thereof” (priority 2018, dated 2026).
